Data set [1] concerns the target T1, Angiotensin-converting enzyme (Oryctolagus cuniculus) (UniProt P12822).
T1 sequence (whole entry): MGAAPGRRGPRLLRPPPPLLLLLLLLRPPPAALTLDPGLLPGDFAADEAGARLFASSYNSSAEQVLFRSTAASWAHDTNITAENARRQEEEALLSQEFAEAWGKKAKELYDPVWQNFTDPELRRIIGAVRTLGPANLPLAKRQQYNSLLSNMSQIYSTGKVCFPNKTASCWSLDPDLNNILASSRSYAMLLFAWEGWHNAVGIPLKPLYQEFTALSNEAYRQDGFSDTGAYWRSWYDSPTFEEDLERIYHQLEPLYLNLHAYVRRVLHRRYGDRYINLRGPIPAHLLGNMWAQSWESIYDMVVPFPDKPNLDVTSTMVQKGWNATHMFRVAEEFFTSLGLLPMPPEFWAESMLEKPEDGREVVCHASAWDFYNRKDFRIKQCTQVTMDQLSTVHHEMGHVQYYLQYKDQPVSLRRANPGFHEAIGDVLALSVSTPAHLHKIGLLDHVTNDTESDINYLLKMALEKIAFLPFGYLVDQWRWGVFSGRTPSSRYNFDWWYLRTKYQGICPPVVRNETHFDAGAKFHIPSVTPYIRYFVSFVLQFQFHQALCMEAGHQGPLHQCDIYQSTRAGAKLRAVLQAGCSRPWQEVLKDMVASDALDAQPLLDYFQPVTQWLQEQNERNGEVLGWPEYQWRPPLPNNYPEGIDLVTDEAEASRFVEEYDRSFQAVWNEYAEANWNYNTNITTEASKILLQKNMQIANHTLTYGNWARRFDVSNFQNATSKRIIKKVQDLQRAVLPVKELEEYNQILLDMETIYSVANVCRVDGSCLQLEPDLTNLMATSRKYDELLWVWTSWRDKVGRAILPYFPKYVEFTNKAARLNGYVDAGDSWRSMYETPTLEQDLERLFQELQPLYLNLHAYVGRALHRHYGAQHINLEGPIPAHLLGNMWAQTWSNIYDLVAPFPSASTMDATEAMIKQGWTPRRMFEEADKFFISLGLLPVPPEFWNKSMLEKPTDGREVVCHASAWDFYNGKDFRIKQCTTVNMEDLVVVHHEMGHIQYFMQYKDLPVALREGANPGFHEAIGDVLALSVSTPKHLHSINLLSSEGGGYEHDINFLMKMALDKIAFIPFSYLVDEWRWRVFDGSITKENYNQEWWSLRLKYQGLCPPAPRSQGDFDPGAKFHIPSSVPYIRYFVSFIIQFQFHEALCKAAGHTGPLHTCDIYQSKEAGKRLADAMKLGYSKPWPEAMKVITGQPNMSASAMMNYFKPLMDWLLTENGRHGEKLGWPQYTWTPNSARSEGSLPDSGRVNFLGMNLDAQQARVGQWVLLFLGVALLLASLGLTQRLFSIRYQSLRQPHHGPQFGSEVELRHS
The experiment in a line: Inhibition of rabbit lung ACE assessed as hippuryl-histidyl-leucine hydrolysis at 1 uM after 30 mins by colorimetric method.

Data set [2] concerns the target T2, Angiotensin-converting enzyme (Oryctolagus cuniculus, UniProt P12822).
T2 sequence (P12822 whole entry): T1 sequence (whole entry)
The experiment in a line: Inhibition of rabbit lung ACE assessed as hippuryl-histidyl-leucine hydrolysis after 30 mins by colorimetric method.

Data set [3] concerns ACE (rabbit lung). Kind of data set: Ratio of IC50 for human A549 cells to IC50 for rabbit lung ACE. The data set is classed as cell-based. The conditions noted are these: read-out: Ratio IC50.
The test system of data set [4] is ACE (rabbit lung). Kind of data set: Ratio of IC50 for HEK cells to IC50 for rabbit lung ACE. Format: cell-based, HEK293. The conditions noted are these: read-out: Ratio IC50.

Some results are limits rather than exact numbers.

In the case of `CCCCc1nc(Cl)c(C(=O)N[C@@H](CO)C(=O)OC)n1C`, the inhibition (usually the percentage by which the read-out fell short of the control) in data set [1] is 55%.

Regarding `CCCCc1nc(Cl)c(C(=O)N[C@@H](Cc2ccccc2)C(=O)OC)n1C`, the IC50 (as a rule, the point on the concentration scale where inhibition reaches its midpoint) in data set [2] is 647 nM. In addition, the selectivity ratio in the data set on ACE (rabbit lung) [3] and in the data set on ACE (rabbit lung) [4] was 1000 in each case. The inhibition in data set [1] is over 80%.

In the case of `CCCCc1nc(Cl)c(C(=O)N[C@H](C(=O)O)[C@H](C)CC)n1C`, in data set [2], the IC50 was determined as 1120 nM. Further, the selectivity ratio in the data set with ACE (rabbit lung) [3] and in the data set with ACE (rabbit lung) [4] was 1000 throughout. In addition, the inhibition in data set [1] was over 80%.

In the case of `CCCCc1nc(Cl)c(C(=O)N[C@@H](CO)C(=O)O)n1C`, the inhibition in data set [1] turned out to be 55%.

For the molecule `CCCCc1nc(Cl)c(C(=O)N[C@@H](CC(C)C)C(=O)OC)n1C`, in data set [1], the inhibition was found to be 55%.

Consider `CCCCc1nc(Cl)c(C(=O)N[C@@H](CC(C)C)C(=O)O)n1C`, for which the inhibition in data set [1] worked out at 55%.

`CCCCc1nc(Cl)c(C(=O)N[C@@H](Cc2ccc(O)cc2)C(=O)OC)n1C`: in data set [1], the inhibition came out at 55%.

As to `CCCCc1nc(Cl)c(C(=O)N[C@@H](CCSC)C(=O)O)n1C`, in data set [2], the IC50 was 657 nM. Besides, the selectivity ratio in the data set with ACE (rabbit lung) [3] and in the data set with ACE (rabbit lung) [4] was 1000 each time. The inhibition in data set [1] is over 80%.

`CCCCc1nc(Cl)c(C(=O)N[C@H](C(=O)O)[C@H](C)O)n1C`: in data set [1], the inhibition stood at 55%.

In the case of `CCCCc1nc(Cl)c(C(=O)N[C@H](C(=O)OC)[C@H](C)O)n1C`, in data set [1], the inhibition is 55%.

As for `CCCCc1nc(Cl)c(C(=O)NCC(=O)OC)n1C`, the inhibition in data set [1] was 55%.

As to `CCCCc1nc(Cl)c(C(=O)N[C@H](C(=O)OC)[C@H](C)CC)n1C`, in data set [1], the inhibition came to 55%.

In the case of `CCCCc1nc(Cl)c(C(=O)N[C@@H](C)C(=O)O)n1C`, the inhibition in data set [1] was determined as 55%.

As to `CCCCc1nc(Cl)c(C(=O)N[C@H](C(=O)O)C(C)C)n1C`, the inhibition in data set [1] came out at 55%.

In the case of `CCCCc1nc(Cl)c(C(=O)N[C@@H](C)C(=O)OC)n1C`, the inhibition in data set [1] stood at 55%.

Regarding `CCOC(=O)[C@H](CCc1ccccc1)N[C@H]1CCc2ccccc2N(CC(=O)O)C1=O` [BENAZEPRIL], the IC50 in data set [2] was found to be 100 nM.

For the molecule `NCCCC[C@H](N[C@@H](CCc1ccccc1)C(=O)O)C(=O)N1CCC[C@H]1C(=O)O` [LISINOPRIL ANHYDROUS], the IC50 in data set [2] came out at 318 nM.

For `CCCCc1nc(Cl)c(C(=O)N[C@H](C(=O)OC)C(C)C)n1C`, in data set [1], the inhibition is 55%.

In the case of `CCCCc1nc(Cl)c(C(=O)N[C@@H](CCSC)C(=O)OC)n1C`, the inhibition in data set [1] worked out at 55%.

In the case of `CCCCc1nc(Cl)c(C(=O)N[C@@H](Cc2ccccc2)C(=O)O)n1C`, the IC50 in data set [2] was found to be 100 nM. Besides, the selectivity ratio in the data set with ACE (rabbit lung) [3] and with ACE (rabbit lung) [4] was 1000 in each case. In addition, the inhibition in data set [1] amounted to 55%.

As for `CCCCc1nc(Cl)c(C(=O)N[C@@H](Cc2c[nH]c3ccccc23)C(=O)OC)n1C`, the IC50 in data set [2] was found to be 531 nM. Further, the selectivity ratio in the data set with ACE (rabbit lung) [3] and with ACE (rabbit lung) [4] was 1000 in each case. Moreover, the inhibition in data set [1] is over 80%.

As to `CCCCc1nc(Cl)c(C(=O)NCC(=O)O)n1C`, the inhibition in data set [1] worked out at 55%.

As to `CCCCc1nc(Cl)c(C(=O)N[C@@H](Cc2ccc(O)cc2)C(=O)O)n1C`, in data set [1], the inhibition turned out to be 55%.

Take `CCCCc1nc(Cl)c(C(=O)N[C@@H](Cc2c[nH]c3ccccc23)C(=O)O)n1C`: the inhibition in data set [1] is over 80%.
